Experimental data: patent US20260000670A1 (priority 2022, published 2026)

System: mice
Assay: anti-AAV8 IgM and IgG titers, 1-week vs 2-week dasatinib treatment in mice
Assay type: in vivo
Description: FIG. 7: In vivo study to assess the impact of prolonging the dasatinib treatment. All mouse groups, except Group 1, were immunized on day 1 with an i.v. injection of AAV8-hSeap (1e12 vg/kg). Four groups received an i.v. injection of AAV8-FactorIX (3e13 vg/kg) on day 43. Concomitantly to the first AAV administration, Groups 3 and 4 were treated with dasatinib for either 1 or 2 weeks, respectively. Dasatinib was administered at the dose of 50 mg/kg per oral gavage, twice per day and starting 1 hr before the first AAV treatment.
(§1) FIGS. 8A-8B: Prolongation of dasatinib treatment from 1 week to 2 weeks improves the inhibition of IgM formation to AAV8. In the experiment described in FIG. 8A and FIG. 8B anti-AAV8 IgM titers (median+/−SD) were measured in each mouse group from day 0 (before AAV8-hSeap administration) to day 64, as described for FIGS. 2A-2C. Each circle represents an individual IgM titer.
as §1, with “9A-9B:” for “8A-8B:”, “IgG” for “IgM”, “9A” for “8A”, “9B,” for “8B”, “3A-3C.” for “2A-2C.”
In the experiment described in Example 1, despite the strong inhibition of anti-AAV antibody formation observed in most of the mice, 4 out of 10 dasatinib-treated animals started to develop anti-AAV8 IgG before re-dosing (FIG. 3C, days 15-21). The presence of residual AAV8 particles in the circulation and in the tissues after the cessation of the dasatinib treatment might lead to this antibody formation. […] To this purpose, the same protocol was applied as in Example 1, but using either a 1-week or a 2-week dasatinib treatment. In addition, re-dosing was performed at a later time point (day 43 instead of day 22) to be able to observe potential antibody formation after the cessation of dasatinib treatment. This protocol is depicted in FIG. 7.
Circulating IgM and IgG directed against the AAV8 capsid were titrated in the serum samples (FIGS. 8A-8B and 9A-9B). The peaks of anti-AAV8 IgM were observed one week after first rAAV8 dosing, on day 8 for the immunized control Group 2 and on day 50 for the non-immunized control Group 1 (10/10 mice above the threshold) (FIGS. 8A-8B). […] Inhibition of IgM production was stronger in Group 4, treated with dasatinib for 2 weeks.

[1] = Group 4, dasatinib for 2 weeks, day 42

For `Cc1nc(Nc2ncc(C(=O)Nc3c(C)cccc3Cl)s2)cc(N2CCN(CCO)CC2)n1` [dasatinib, N-(2-chloro-6-methylphenyl)-2-[[6-[4-(2-hydroxyethyl)-1-piperazinyl]-2-methyl-4-pyrimidinyl]amino]-5-thiazole carboxamide monohydrate], the “anti-AAV8 IgM titers until administration of the second rAAV8” value (Group 3, dasatinib 50 mg/kg oral twice per day for 1 week) was “remained low to negative”, the “mice with negative anti-AAV8 IgG titers” value (Group 3, dasatinib for 1 week, day 42) was 3/15 and the “mice with positive IgM titers to AAV8” value (Group 3, dasatinib for 1 week, day 42 before AAV8 re-dosing) was “Four out of 15”. For the same molecule, the “inhibition of IgM production compared with 1-week treatment” value (Group 4, dasatinib for 2 weeks) was “stronger”, the “mice with IgG titers below the positivity threshold” value [1] was 5/15 and the “mice with positive IgM titer” value [1] was “one”. The “median anti-AAV8 IgG titer” value (Group 4, dasatinib for 2 weeks, day 42, compared with 1-week Group 3) was “much lower than in Group 3” and the “anti-AAV8 IgG titers after rAAV8 re-administration” value (day 64, 3 weeks after rAAV8 re-administration) was “comparable in all mouse groups”.
